Bridges are numbered along the chain shown (N, C = ends). Where no end group is shown, it is not given here. [ ]: non-standard residue; d: D form. conjugation handle = not defined here; tBuAla = CC(C)(C)C[C@H](N)C(=O)O; Tle = CC(C)(C)[C@H](N)C(=O)O; Nle = CCCC[C@H](N)C(=O)O
Legend:
[1] = system: housekeeping gene mRNA; test: Mouse CNS delivery, intracerebroventricular, 14/60-day (RT-qPCR); type: in vivo; details: for ICV % housekeeping gene knockdown relative to aCSF: 14-day, ICV dosing
Experimental: The delivery of the SORT1 peptide conjugates was further tested over longer dosing regimens of 14 days and 60 days. […] The delivery of the siRNA-peptide-conjugated was measured at the end of the 14- or 60-day dosing regimen via RT-qPCR of samples from various parts of the mouse CNS: lumbar spinal cord (LSC; FIGS. 25A and 25B), brainstem (BS; FIGS. 25C and 25D), cerebellum (CB; FIGS. 25E and 25F), frontal cortex (FC; FIGS. 26A and 26B), somatosensory cortex (SSC; FIGS. 26C and 26D), hippocampus (HC; FIGS. 26E and 26F), thalamus (TH; FIGS. 27A and 27B), liver (FIGS. 27C and 27D), and heart (FIGS. 27E and 27F). 14- and 60-days post-injection mice were sacrificed, and tissues collected (brain, spinal cord, heart, liver). Tissues were flash frozen and prepared for RT-qPCR detection of target housekeeping gene mRNA knockdown (quantified below in Table 20).

[2] = system: housekeeping gene mRNA; test: Mouse CNS delivery, intrathecal, 7-day (RT-qPCR); type: in vivo; details: IT dosing
Experimental: These conjugates were administered to C57BL/6 mice intrathecally (IT), by injection into the spinal canal, for 7 days at 150 μg of siRNA. The delivery efficacy of the various peptide conjugates was measured by measuring the amount of the housekeeping gene mRNA remaining in tissue samples at the end of the 7-day dosing regimen via RT-qPCR of samples from various parts of the mouse CNS: lumbar spinal cord (LSC; FIG. 24A), brainstem (BS; FIG. 24B), cerebellum (CB; FIG. 24C), frontal cortex (FC; FIG. 24D), somatosensory cortex (SSC; FIG. 24E), hippocampus (HC; FIG. 24F), thalamus (TH;
FIG. 24G), liver (FIG. 24H), and heart (FIG. 24I). 7 days post-injection mice were sacrificed, and tissues collected (brain, spinal cord, heart, liver). Tissues were flash frozen and prepared for RT-qPCR detection of target housekeeping gene mRNA knockdown (quantified below in Table 19). Furthermore, histological studies were performed in the brain and cervical spinal cord. In situ hybridization using miRNAscope and a probe that binds the housekeeping gene siRNA was used to assess the localization of the SORT1 peptide conjugates in cross sections of the brain and cervical spinal cord.
To characterize the amount of mRNA present in tissue samples following 7 days from mice treated with SORT1 peptide conjugates, control mice were injected with an equivalent volume of artificial cerebrospinal fluid (aCSF) as a comparative negative control.

[3] = system: housekeeping gene mRNA; test: Rat CNS delivery, intrathecal, 28-day (RT-qPCR); type: in vivo; details: IT, 900 μg siRNA
Experimental: SORT1 peptide 3 conjugate was prepared as described above. The SORT1 peptide 3 conjugate or a benchmark lipid were administered to rats intrathecally (IT), by injection into the spinal cord, for 28 days at 900 μg of siRNA. The delivery efficacy of the SORT1 peptide 3 conjugate was measured by measuring the amount of the housekeeping gene mRNA remaining in tissue samples at the end of the 28-day dosing regimen via RT-qPCR of samples from various parts of the rat CNS: lumbar spinal cord (LSC), cervical spinal cord (CSC), brainstem (BS), cerebellum (CB), somatosensory cortex (SSC), frontal cortex (FC), hippocampus (HC), thalamus (TH), liver, and heart. 28 day post-injection rats were sacrificed, and tissues collected (brain, spinal cord, heart, liver). Tissues were flash frozen and prepared for RT-qPCR detection of target housekeeping gene mRNA knockdown.
To characterize the amount of mRNA present in tissue samples from rats treated with SORT1 peptide 3 conjugates following the 28-day dosing regimen, control rats were injected with an equivalent volume of artificial cerebrospinal fluid (aCSF) as a comparative negative control.

[4] = target: T1, rat SORT1 (76-752)-His (rat, UniProt O54861 76-752); test: SPR (Biacore 8K), SORT1 on CM5 chip, unconjugated peptide with conjugation handles as analyte, 1:1 model
T1 construct: range 76-752; Amine-coupled to CM5 chip for SPR
T1 sequence (looked up): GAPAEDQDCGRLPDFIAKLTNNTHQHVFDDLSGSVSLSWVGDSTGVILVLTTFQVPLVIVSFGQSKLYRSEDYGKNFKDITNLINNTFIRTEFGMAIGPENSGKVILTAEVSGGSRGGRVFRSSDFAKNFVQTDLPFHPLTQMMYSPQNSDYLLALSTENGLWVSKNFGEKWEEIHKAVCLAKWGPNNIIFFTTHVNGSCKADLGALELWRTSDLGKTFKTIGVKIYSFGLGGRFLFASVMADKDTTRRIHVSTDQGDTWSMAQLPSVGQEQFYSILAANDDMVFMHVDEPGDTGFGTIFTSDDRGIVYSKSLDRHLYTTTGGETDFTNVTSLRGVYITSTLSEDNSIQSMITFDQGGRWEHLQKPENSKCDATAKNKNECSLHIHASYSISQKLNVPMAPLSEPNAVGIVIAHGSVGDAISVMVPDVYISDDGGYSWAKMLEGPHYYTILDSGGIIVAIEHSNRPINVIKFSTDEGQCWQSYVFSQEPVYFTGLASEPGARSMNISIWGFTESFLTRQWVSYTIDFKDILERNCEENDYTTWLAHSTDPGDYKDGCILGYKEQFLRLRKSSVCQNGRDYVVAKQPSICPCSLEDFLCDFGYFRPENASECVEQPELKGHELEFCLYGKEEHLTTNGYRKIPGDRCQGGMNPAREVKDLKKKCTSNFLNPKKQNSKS
Experimental: (§1) SPR analysis was performed on Series S CM5 chips (Cytiva) using a Biacore 8K instrument (Cytiva). Sensorgrams were double-referenced by subtracting the response on both a reference flow cell and a blank sample. Human SORT1 (78-755)-His (Acrobiosystems), human SORT1 (78-755)-His(GenScript), mouse SORT1 (76-753)-His (R&D Systems), rat SORT1 (76-752)-His (GenScript), and cyno SORT1 (76-753)-His (GenScript) were diluted to 20-60 μg/mL in 10 mM sodium acetate pH 4.5 buffer and immobilized onto Series S CM5 chips using amine coupling at a flow rate of 10 μL/min for 45-100 s.
(§2) Ten start-up cycles and a blank cycle preceded each analysis run. The runs were performed by sequential injections of analyte (0-20 nM, 3-fold serial dilutions) with a 90 s association and 900 s dissociation at a flow rate of 30 μL/min, followed by two regeneration cycles with 2 M MgCl2 for 90 s at a flow rate of 10 μL/min. […] Five start-up cycles and a blank cycle preceded each analysis run. The runs were performed by sequential injections of analyte (0-25 nM) with a 150 seconds (s) association and 300 s dissociation at a flow rate of 30 μL/min, followed by a regeneration with 2 M MgCl₂ for 200 s at a flow rate of 10 μL/min. The kinetic rate constants (kₐ and kd) and the equilibrium binding constant (Kd) were calculated using a 1:1 kinetic binding model on the Biacore Insight Evaluation Software (Cytiva).
(§3) SPR analysis was performed on Series S CM5 chips (Cytiva) using a Biacore 8K instrument (Cytiva). Sensorgrams were double-referenced by subtracting the response on both a reference flow cell and a blank sample. The SPR analysis was conducted using four different SORT1 species: Human SORT1, Mouse SORT1, Rat SORT1, and Cyno SORT1. The samples were prepared according to the general procedure described above herein. The kinetic rate constants (ka and […]) and the equilibrium binding constant (Kd) were calculated using a 1:1 kinetic binding model on the Biacore Insight Evaluation Software (Cytiva).

[5] = target: T2, cyno SORT1 (76-753)-His (cyno, UniProt A0A2K5VHG2 74-751); test: as above
T2 construct: range 76-753; Amine-coupled to CM5 chip for SPR
T2 sequence: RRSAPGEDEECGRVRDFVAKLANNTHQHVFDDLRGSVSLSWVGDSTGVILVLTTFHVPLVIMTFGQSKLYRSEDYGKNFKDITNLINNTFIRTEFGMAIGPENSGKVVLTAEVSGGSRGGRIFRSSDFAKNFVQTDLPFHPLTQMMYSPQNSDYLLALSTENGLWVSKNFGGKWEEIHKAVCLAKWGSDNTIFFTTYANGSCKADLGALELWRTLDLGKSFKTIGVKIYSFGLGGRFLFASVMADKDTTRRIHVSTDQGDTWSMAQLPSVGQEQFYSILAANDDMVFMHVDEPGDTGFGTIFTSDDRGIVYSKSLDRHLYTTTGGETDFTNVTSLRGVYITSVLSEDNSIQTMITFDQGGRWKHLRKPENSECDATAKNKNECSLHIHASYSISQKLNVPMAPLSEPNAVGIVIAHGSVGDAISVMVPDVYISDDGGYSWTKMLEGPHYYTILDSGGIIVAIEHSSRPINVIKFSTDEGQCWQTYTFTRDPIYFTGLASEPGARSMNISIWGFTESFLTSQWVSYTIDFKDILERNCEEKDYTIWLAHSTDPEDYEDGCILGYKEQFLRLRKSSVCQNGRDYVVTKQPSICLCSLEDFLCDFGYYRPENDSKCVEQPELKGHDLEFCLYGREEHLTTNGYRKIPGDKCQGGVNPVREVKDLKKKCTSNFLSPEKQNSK
Experimental: as §1, §2, §3

[6] = target: T3, Human SORT1 (78-755)-His (human, UniProt Q99523 78-755); test: as above
T3 construct: range 78-755; Amine-coupled to CM5 chip for SPR; Two suppliers are named (Acrobiosystems, GenScript)
T3 sequence (looked up): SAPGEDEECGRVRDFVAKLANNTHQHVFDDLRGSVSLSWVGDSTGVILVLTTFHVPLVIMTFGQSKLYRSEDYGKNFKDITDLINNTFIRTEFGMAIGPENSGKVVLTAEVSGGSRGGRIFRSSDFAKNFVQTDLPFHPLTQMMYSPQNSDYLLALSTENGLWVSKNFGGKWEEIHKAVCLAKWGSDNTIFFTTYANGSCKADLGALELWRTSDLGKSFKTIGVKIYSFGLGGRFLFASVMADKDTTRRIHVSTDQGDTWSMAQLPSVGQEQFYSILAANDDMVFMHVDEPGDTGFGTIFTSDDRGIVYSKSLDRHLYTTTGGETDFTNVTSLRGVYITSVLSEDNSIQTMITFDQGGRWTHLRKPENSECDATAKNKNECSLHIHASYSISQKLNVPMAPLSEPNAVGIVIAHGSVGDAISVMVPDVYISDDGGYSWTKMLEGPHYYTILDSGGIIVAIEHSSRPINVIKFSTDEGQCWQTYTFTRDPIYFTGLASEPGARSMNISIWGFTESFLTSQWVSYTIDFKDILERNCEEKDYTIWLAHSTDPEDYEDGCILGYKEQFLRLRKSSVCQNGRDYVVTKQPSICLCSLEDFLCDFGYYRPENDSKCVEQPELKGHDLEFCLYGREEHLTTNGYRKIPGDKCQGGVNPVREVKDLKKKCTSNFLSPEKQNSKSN
Experimental: as §1, §2, §3

## SORT1 peptide 3 conjugate (RWCENKR[Nle]FTCRQ[Tle][tBuAla]; disulfide 3-11 (inferred); not fully specified (residue 6); printed as RWCENKR(Nle)FTCRQ(B13)(F02); also: conjugated via a linker to siRNA targeting a housekeeping gene mRNA, attachment presumably at the introduced Lys)
[1]; BS
  ICV % housekeeping gene knockdown relative to aCSF: 79.6%
[1]; CB
  ICV % housekeeping gene knockdown relative to aCSF: 66.6%
[1]; FC
  ICV % housekeeping gene knockdown relative to aCSF: 72.6%
[1]; HC (deep brain)
  ICV % housekeeping gene knockdown relative to aCSF: 72.1%
[1]; Heart
  ICV % housekeeping gene knockdown relative to aCSF: 7.9%
[1]; ICV, after 14 days
  knockdown of the target gene in peripheral tissues (heart and liver) relative to aCSF: No significant knockdown
[1]; LSC, 100 μg siRNA
  ICV % housekeeping gene knockdown relative to aCSF: 84.8%
[1]; Liver
  ICV % housekeeping gene knockdown relative to aCSF: 8.7%
[1]; SSC
  ICV % housekeeping gene knockdown relative to aCSF: 72.6%
[1]; TH (deep brain)
  ICV % housekeeping gene knockdown relative to aCSF: 76.2%
[2]; BS
  IT % housekeeping gene knockdown relative to aCSF: 77.0%
[2]; CB
  IT % housekeeping gene knockdown relative to aCSF: 53.6%
[2]; FC
  IT % housekeeping gene knockdown relative to aCSF: 50.1%
[2]; HC (deep brain)
  IT % housekeeping gene knockdown relative to aCSF: 66.6%
[2]; Heart
  IT % housekeeping gene knockdown relative to aCSF: 47.0%
[2]; LSC, 150 μg siRNA
  IT % housekeeping gene knockdown relative to aCSF: 94.7%
[2]; Liver
  IT % housekeeping gene knockdown relative to aCSF: 0.0%
[2]; SSC
  IT % housekeeping gene knockdown relative to aCSF: 61.4%
[2]; TH (deep brain)
  IT % housekeeping gene knockdown relative to aCSF: 33.4%
[3]
  housekeeping gene mRNA in the CNS relative to the aCSF control: significantly reduced

B1: SORT1 peptide 3 (w/conjugation handles), unconjugated (peptide)
peptide: RWCENK(conjugation handle)R[Nle]FTCRQ[Tle][tBuAla]
modifications: disulfide 3-11 (inferred); reading uncertain; also: K6 conjugation handle not given here, printed as RWCENKR(Nle)FTCRQ(B13)(F02)
[4]
  Kd: 1.16 nM
[5]
  Kd: 0.191 nM
[6]
  Kd: 0.168 nM

Reference: patent publication US20260183411A1, “TARGETING SORTILIN” (priority 2024, published 2026)
